One series deals with thrombin generation. The experiment in a line: Thrombin generation in platelet poor plasma (Thrombinoscope, Innovin or Actin trigger). It is filed as biochemical, human. The conditions noted are these: COL-3 final concentration 10.72, 21.44 and 536 μl, Innovin 5 pM or Actin 1:20 trigger, FIGS. 1A and 1B. The method, then: (§1) COL-3 was dissolved in DMSO (dimethyl sulfoxide, Sigma, St. Louis, Mo.). Blood was drawn from 5 consented healthy volunteers into 3.2% citrate tubes.
For thrombin generation experiments 80 μl of platelet poor plasma containing either saline, DMSO or COL-3 at final concentration of […] and thrombin generation trigger (Innovin 5 pM, or Actin 1:20 dilution, Dade Behring, Marburg, Germany) were added to 96 well microtiter plate (Microfluor-2, Thermolabsystems, Franklin Mass.) followed by 20 μl of calcium-substrate (Z-GGR-AMC, Bachem, Switzerland) buffer. The reaction was monitored by measuring increase in fluorescence at 390 nm excitation and 460 nm emission wavelengths and the acquired data was processed for lag time and peak thrombin generation parameters using Thrombinoscope software (Thrombinoscope BV, Maastricht, the Netherlands). The data were imported into excel file and the % decrease in thrombin generation due to COL-3 was calculated. Data were analyzed using repeated ANOVA p<0.05 was considered significant.

In a further series the test system is plasma PT. The series is described as follows: Prothrombin time (PT) in plasma. The conditions noted are these: COL-3 10.72, 21.44 and 536 μM, FIG. 2. It counts as biochemical, human. The method, then: as §1
(§2) Maximum amplitude (MA), angle, and R-value were recorded. For prothrombin time (PT) and activated partial thromboplastin time (aPTT) blood samples were centrifuged for 15 min at 3000× g to obtain plasma and COL-3 was added to a final concentration of 10.72, 21.44 and 536 μM. Testing was done using Start 4instrument (Diagnostic Stago, Parsippainy, N.J.) along with appropriate standards and controls.

The test system of the next series is plasma aPTT. The experiment in a line: Activated partial thromboplastin time (aPTT) in plasma. It counts as biochemical, human. Conditions: COL-3 10.72, 21.44 and 536 μM, FIG. 2. The protocol: as §1, §2
The next series has as its system platelets. The experiment in a line: Platelet aggregation (light transmittance aggregometer, ADP and collagen activators). It counts as cell-based, human. The conditions noted are these: 200,000 platelets/μl; ADP and collagen (20 μM) as activators. The method, then: as §1
For platelet aggregation studies platelet rich and platelet poor plasma was separated by centrifugation. All platelet studies were performed in a total volume of 500 μl with 200,000 platelets/μl. Platelet aggregation was quantitated by measuring changes in light transmittance in dual channel aggregometer (Chronolog Corp. Havertown, Pa.) using ADP (adenosine di-phosphate) and collagen (final concentration 20 μM) as activators.

The subject of another series is whole blood. The series is described as follows: TEG (Thromboelastograph) of whole blood activated with tissue factor. It counts as cell-based, human. The conditions noted are these: COL-3 10.72 or 21.44 μM, TF 4 pM. The method, then: as §1
For TEG (Thromboelastograph, Haemoscope Corp, Skokie Ill.) whole blood samples (0.34 ml) were added to cups along with 10 μl of saline (control), DMSO, or COL-3 (final concentration of 10.72 or 21.44 μM). After addition of calcium chloride (20 μl of 0.2 M), samples were activated with TF (tissue factor) (4 pM) and TEGs (thrombelastogram) were run according to manufacturers directions.
as §2

Series [1] is described as follows: Plasma concentration in humans after daily dose. It is filed as in vivo. The conditions noted are these: dose of about 10 to about 20 mg/day.

The structures appear in SMILES notation.

Regarding `NC(=O)C1=C(O)C[C@@H]2C[C@@H]3Cc4cccc(O)c4C(=O)C3=C(O)[C@]2(O)C1=O` [COL-3, 6-demethyl-6-deoxy-4-de(dimethylamino)tetracycline], in the series with thrombin generation, the thrombin generation entry is “dose dependent reduction”. Moreover, the PT values entry in the series with plasma PT is given as “increased only at the highest concentration”. Besides, the aPTT values entry in the series on plasma aPTT is recorded as “increased only at the highest concentration”. For the same molecule, the platelet aggregation entry in the series with platelets is given as “no effect”. Further, in the series on whole blood, the “TEG parameters (maximum amplitude (MA), angle, R-value)” value was “no effect”. In addition, the “plasma concentrations in humans” value in series [1] is given as “about 1.0 μg/ml”.

(Values after patent US8211874B2, “Inhibition of thrombin generation” (Galderma Laboratories Inc., priority 2005, dated 2012).)
